{"source": "patent US12485133B2", "about": "“Inhaled ivermectin” (Hovione Scientia Limited, priority 2021, dated 2025)", "origin": "cited, not measured here", "key": {"[1]": {"assay": "not given", "remark": "listed apart in the source"}, "[2]": {"assay": "not given", "remark": "listed apart in the source"}, "SARS-Cov-2": {"system": "SARS-Cov-2", "settings": "incubated with 5 μM Ivermectin"}}, "data": [{"substance": "Ivermectin", "values": [{"measurement": "solubility in non-polar aprotic solvents such as hexane", "setting": "hexane", "value": "completely insoluble"}, {"measurement": "solubility in methanol and 95% ethanol", "setting": "methanol, 95% ethanol", "value": "freely soluble"}, {"measurement": "solubility in water", "setting": "water", "value": "< 1", "unit": "µg/mL"}, {"measurement": "Log P", "setting": "[1]", "value": 4.4}, {"measurement": "stability under acidic and basic aqueous conditions", "setting": "[2]; acidic and basic aqueous conditions", "value": "degrades"}, {"measurement": "optimal pH for stability", "setting": "[2]; aqueous conditions", "value": 6.3}, {"measurement": "solid state stability (degradation in drug substance batches)", "setting": "[2]; solid state, 37° C. for 1.5 years", "value": "no degradation observed"}, {"measurement": "time to eliminate the virus from supernatant and infected cells", "setting": "SARS-Cov-2", "value": "≤ 48", "unit": "h"}]}]}
